Assay results as given in patent publication US20240277754A1, “IMMUNO-ONCOLOGY THERAPEUTIC COMPOSITION USING ADJUVANT INCLUDING LIPOPEPTIDES AND POLY (I:C)” (CHA VACCINE RESEARCH INSTITUTE CO., LTD, priority 2021, published 2024).

Tested on: MC38 mouse colon cancer cells
Assay: Tumor suppressive efficacy in combination with other TLR ligands or saponin, colon cancer mouse model
Assay type: in vivo, C57BL/6 mice
Conditions: L-pampo 45 μg/dose, QS21 10 μg/dose, Imiquimod 10 μg/dose, intratumoral four times at 3-day intervals, D20, 12 days after start
Method: Tumors were generated in mice by subcutaneous injection of 1×10^5 MC38 mouse colon cancer cells into the right flank of 8-week-old female C57BL/6 mice (OrientBio, Korea). The immuno-oncology drug L-pampo was prepared by mixing 25 μg of Pam3CSK4 and 20 μg of poly(I:C). […] This was administered into the tumor four times at 3-day intervals. Tumor sizes for all experimental groups were measured every three days. The long and short axes of the tumor were measured, and the size of the tumor was calculated as [½×size of the long axis×(size of the short axis)^2]. The tumor suppressive efficacy was analyzed based on the calculated tumor size.

| Compound | size of the tumor reduced compared to negative control (buffer) |
| --- | --- |
| CC(C)Cn1cnc2c(N)nc3ccccc3c21 [imiquimod] | about 39% |
| QS-21 | about 57% |
